≈ marks a conversion by molar mass, not a printed value. Starred links: 1 amine or outer side, 2 acyl side, 3 side chain; linkers in the order of their positions; H or OH if unused. Positions of bridges follow the written chain, without caps; N, C: chain ends. Non-standard residues stand in square brackets, D forms with d. Residues, ends and D or L forms follow the SMILES beside them. *: point of attachment. pTerphenylCO(4''-OnC5H11) = CCCCCOc1ccc(-c2ccc(-c3ccc(C(=O)*)cc3)cc2)cc1; X1 = NCC(=O)Nc1cc(CC[C@H](N[*:1])C(=O)[*:2])ccc1O; X2 = NC(N)=N[C@H]1CC(C(=O)[*:2])N([*:1])C1; Hyp = O=C(O)[C@@H]1C[C@@H](O)CN1; Orn = NCCC[C@H](N)C(=O)O
Legend:
Format in all cases: functional
Candida albicans [1] = assay: Minimum inhibitory concentration against Candida albicans (CAF2)
Rattus norvegicus = species: Rattus norvegicus; assay: Minimum inhibitory concentration against Candida albicans (CCH442) tested in rats
Aspergillus fumigatus = assay: Minimum inhibitory concentration against Aspergillus fumigatus
Mus musculus = species: Mus musculus; assay: Minimum inhibitory concentration against Candida albicans (CCH442) tested in mice
Candida albicans [2] = assay: Minimum inhibitory concentration against 41 strains of C. albicans; Range is 0.25-1.0 ug/mL

Compound | MIC (Candida albicans [1]) [µg/mL] | MIC (Rattus norvegicus) [µg/mL] | MIC (Aspergillus fumigatus) [µg/mL] | MIC (Mus musculus) [µg/mL] | MIC (Candida albicans [2]) [µg/mL]
C[C@@H]1[C@H](O)[C@@H](C)/C=C/C=C/C=C/C=C/C=C/C=C/C=C/[C@H](O[C@@H]2O[C@H](C)[C@@H](O)[C@H](N)[C@@H]2O)C[C@@H]2O[C@](O)(C[C@@H](O)C[C@@H](O)[C@H](O)CC[C@@H](O)C[C@@H](O)CC(=O)O[C@H]1C)C[C@H](O)[C@H]2C(=O)O [AMPHOTERICIN B] | 0.5 (≈ 0.541 µM) | 1 (≈ 1.08 µM) | 0.78 (≈ 0.844 µM) | 1 (≈ 1.08 µM) | –
CCCCCOc1ccc(-c2ccc(-c3ccc(C(=O)N[C@H]4CCCNC(=O)C5C[C@H](N=C(N)N)CN5C(=O)[C@H]([C@@H](C)O)NC(=O)[C@H](CCc5ccc(O)c(NC(=O)CN)c5)NC(=O)[C@@H]5C[C@@H](O)CN5C(=O)[C@H]([C@@H](C)O)NC4=O)cc3)cc2)cc1 (stereo not given in full) ({pTerphenylCO(4''-OnC5H11)}-[Orn]T[Hyp][X1]T[X2]; lactam 1-C) | 0.25 (≈ 0.213 µM) | 0.5 (≈ 0.425 µM) | > 100 | 0.5 (≈ 0.425 µM) | 0.25 (≈ 0.213 µM)
OC(Cn1cncn1)(Cn1cncn1)c1ccc(F)cc1F [FLUCONAZOLE] | – | 0.19 (≈ 0.62 µM) | – | – | –

Reference: ChEMBL document CHEMBL1145758, “In vivo characterization of A-192411: a novel fungicidal lipopeptide (II)” (2003)
